This note sets out measurements from patent publication US9597283B2, “Injectable depot formulation comprising optically active tolvaptan and process of producing the same” (OTSUKA PHARMACEUTICAL CO., LTD., priority 2012, dated 2017).

A short description of series [1]: dissolution test of tolvaptan powders. The class given is physicochemical. Particulars: Test Example 3; crystal powders; 0.1 g in 500 mL polysorbate 80 / phosphate solution pH 7.4; sampling up to 48 hours; FIG. 5. The protocol: The dissolution test of each of the R- and S-tolvaptan SD powders of Examples 1 and 2, tolvaptan (racemic compound) SD powders of Comparative Examples 1 to 6, and tolvaptan (racemic compound) crystal powder of Comparative Example 7 was performed (FIGS. 2 to 4). In the dissolution test method, the R- and S-tolvaptan SD powders, tolvaptan (racemic compound) SD powders, and tolvaptan (racemic compound) crystal powder were weighed out in individual amounts of 0.1 g, and added to a solution (500 mL) for dissolution test shown in Table 2. None of the tolvaptans in an amount weighed above were dissolved in the solvent for dissolution test, and were fully suspended. Sequential sampling was performed 0.083, 0.167, 0.5, 1, 2, 4, 6, 8, 12, 24, 48, and 144 hours after addition.
The dissolution test of each of the R- and S-tolvaptan crystal powders was performed (FIG. 5). As a control, the result of Comparative Example 7 in Test Example 2 above was plotted. In the dissolution test method, an R-tolvaptan crystal powder (mean particle size: 34.0 μm) or an S-tolvaptan crystal powder (mean particle size: 35.8 μm) was weighed out in an amount of 0.1 g, and added to the solution for the dissolution test (500 mL) shown in Table 2 above. None of the tolvaptans in an amount weighed above were dissolved in the solution for dissolution test, and were fully suspended. […]

Series [2] in a line: in vitro metabolic stability test, rat liver homogenate (S9 fraction). In kind it is in vitro ADME. To be noted: 100 nM, sampling 5, 10, 30, 60 minutes, LC-MS/MS, FIG. 1 (2). The protocol:
(§1) Using human and rat liver homogenates (S9 fractions), the in vitro metabolic stability test of tolvaptan (racemic compound), R-tolvaptan, and S-tolvaptan was performed. The concentration of each evaluated compound was set to 100 nM, and the concentration sampling of each compound in a reaction mixture was conducted over time, i.e., 5, 10, 30, and 60 minutes after addition, and measured by LC-MS/MS (FIGS. 1 (1) and (2)).

The nature of series [3]: in vitro metabolic stability test, human liver homogenate (S9 fraction). Particulars: 100 nM, sampling 5, 10, 30, 60 minutes, LC-MS/MS, FIG. 1 (1). The class given is in vitro ADME. The protocol: as §1

Take `Cc1ccccc1C(=O)Nc1ccc(C(=O)N2CCC[C@@H](O)c3cc(Cl)ccc32)c(C)c1` [R-tolvaptan, R-(+)-7-chloro-5-hydroxy-1-[2-methyl-4-(2-methylbenzoylamino)benzoyl]-2,3,4,5-tetrahydro-1H-benzazepine]: in series [1], the dissolution amount entry was “slightly higher than that of the tolvaptan (racemic compound) crystal of Comparative Example 7, and remained fairly constant”. Besides, the “in vitro metabolic stability (disappearance over time)” value in series [2] is “disappeared slowly compared to tolvaptan (racemic compound) or S-tolvaptan, and had high metabolic stability”.
As for `Cc1ccccc1C(=O)Nc1ccc(C(=O)N2CCC[C@H](O)c3cc(Cl)ccc32)c(C)c1` [S-tolvaptan, S-(−)-7-chloro-5-hydroxy-1-[2-methyl-4-(2-methylbenzoylamino)benzoyl]-2,3,4,5-tetrahydro-1H-benzazepine], the “in vitro metabolic stability (disappearance over time)” value in series [3] is “disappeared slowly compared to tolvaptan (racemic compound) or R-tolvaptan, and had high metabolic stability”. The dissolution amount entry in series [1] was “slightly higher than that of the tolvaptan (racemic compound) crystal of Comparative Example 7, and remained fairly constant”.
